According to paper PMC6274350, “Design, Synthesis, and Cytotoxicity of 5-Fluoro-2-methyl-6-(4-aryl-piperazin-1-yl) Benzoxazoles” (Molecules, 2016):

tested on: not listed separately; test: CellTiter-Glo luminescent cell viability (cytotoxicity) assay on hepatocytes; format: cell-based, human; conditions: human; Liver cells, hepatocytes (HepaRG); 0.1 µM; 24 h; vs DMSO vehicle
Experimental: (§1) The cytotoxicity of prepared benzoxazoles (7a–j) and intermediates (6a–j and 9) were measured by applying the CellTiter-Glo® luminescent cell proliferation assay (G755A, Promega, Madison, WI, USA). This method permits the determination of viable cells numbers in the culture based on quantitation of the ATP present, which denotes the presence of metabolically active cells. In vitro cytotoxicity analysis was overall performed following the protocol as described in “Guidance Document on Using in Vitro Data to Estimate in Vivo Starting Doses for Acute Toxicity Based on Recommendations” [18]. Human A-549 cells are human lung cancer epithelial cells, which were chosen as the tumor model, whereas the HepaRG™ cell line is a classic hepatic cell line that retains many characteristics of primary human hepatocytes. HepaRG™ cells are terminally differentiated.
(§2) Human cell cultures: Hepatocytes (HepaRG^TM cells) were obtained from Life Technologies, and were cultivated in William’s E Medium (Gibco, Life Technologies, Waltham, MA, USA) and supplemented with 1x GlutaMAX™ plus 1x HepaRG^TM General Purpose Medium Supplement in 25-cm^2 or 75-cm^2 flasks (TPP, Trasadingen, Switzerland) at 37 °C and 5% CO2. Lung cancer epithelial cells A-549 were propagated in Epilife Medium (Gibco, Life Technologies; MEPICF) and combined with CaCl2 and 1x-growth-supplement containing penicillin and streptomycin (Gibco, Life Technologies). For sub-culturing, cells were split at a ratio of 1:4 to 1:8. For cryopreservation, cells were frozen in 10% DMSO in liquid nitrogen.
(§3) Human cytotoxicity assay: Human hepatocytes or human lung carcinoma cells were seeded into sterile black clear-bottomed polystyrene Corning® CellBind® 96-well plates (Munich, Germany) at a density of 20,000 cells/well after calculating cell numbers from trypsinized samples in a classical Neubauer Improved hemocytometer (VWR, Munich, Germany). The cells were grown for 24 h at 37 °C in a 5% CO2 atmosphere in Epilife medium (keratinocytes) or William′s E medium (hepatocytes). After a 24-h recovery period, media were removed from the wells by aspiration. The cells were then immediately exposed to the respective test compounds or reference antibiotics (prepared in advance in 100 µL of the same media) for 24 h 37 °C with 5% CO2. The concentration tested ranged from 0.1 µM to 500 µM (0.1 µM, 1 µM, 10 µM, 50 µM, 100 µM, 250 µM, and 500 µM) and was formulated as a 100× concentrated stock each, resulting in a final constant DMSO concentration of 1% per 100-µL sample volume. Test series were each performed in triplicate, and additionally included a vehicle reference (DMSO only) plus another internal control for evaluating overall assay performance. Additionally, cells were visually examined under a light microscope for any morphological abnormalities relative to the untreated cells. Subsequently, cell viability, as an indicator of potential cytotoxicity, was measured by applying the CellTiter-Glo® luminescent cell proliferation assay (G755A, Promega, Madison, WI, USA). This method permits the determination of the number of viable cells in culture based on quantitation of the ATP present, which denotes the presence of metabolically active cells. To this end, 100 µL (equal to the volume of culture medium) of the kit-provided CellTiter-Glo® reagent (reconstituted by transferring the thawed CellTiter-Glo® buffer to the lyophilized enzyme and substrate mixture) was directly added to each well with a repetitive dispensing pipette. The contents were then mixed for 2 min at room temperature on an orbital minishaker (IKA® MS3 digital, Staufen, Germany) at 450 rpm to induce efficient cell lysis, and then further incubated for 10 min at room temperature for stabilization of the resultant luminescent signal. […]

Going from O=[N+]([O-])c1cc(F)c(N2CCN(c3cccc(O)c3)CC2)cc1O [Compound 6h, 4-Fluoro-5-[4-(3-hydroxy-phenyl)-piperazin-1-yl]-2-nitro-phenol] to Cc1ccc(N2CCN(c3cc(O)c([N+](=O)[O-])cc3F)CC2)cc1 [Compound 6b, 4-Fluoro-2-nitro-5-(4-p-tolyl-piperazin-1-yl)-phenol], the viability at 24 h, 0.1 µM falls from 117% to 107%.

With COc1ccc(N2CCN(c3cc4oc(C)nc4cc3F)CC2)cc1 [Compound 7e, 5-Fluoro-6-[4-(4-methoxy-phenyl)-piperazin-1-yl]-2-methyl-benzooxazole] the viability at 24 h, 0.1 µM was 107%.

same assay, conditions: human; Liver cells, hepatocytes (HepaRG); 1 µM; 24 h; vs DMSO vehicle

Going from O=[N+]([O-])c1cc(F)c(N2CCN(c3cccc(O)c3)CC2)cc1O [Compound 6h, 4-Fluoro-5-[4-(3-hydroxy-phenyl)-piperazin-1-yl]-2-nitro-phenol] to Cc1ccc(N2CCN(c3cc(O)c([N+](=O)[O-])cc3F)CC2)cc1 [Compound 6b, 4-Fluoro-2-nitro-5-(4-p-tolyl-piperazin-1-yl)-phenol], the viability at 24 h, 1 µM rises from 109% to 123%.

With COc1ccc(N2CCN(c3cc4oc(C)nc4cc3F)CC2)cc1 [Compound 7e, 5-Fluoro-6-[4-(4-methoxy-phenyl)-piperazin-1-yl]-2-methyl-benzooxazole] the viability at 24 h, 1 µM was 108%.

same assay, conditions: human; Liver cells, hepatocytes (HepaRG); 10 µM; 24 h; vs DMSO vehicle

First: O=[N+]([O-])c1cc(F)c(N2CCN(c3cccc(O)c3)CC2)cc1O [Compound 6h, 4-Fluoro-5-[4-(3-hydroxy-phenyl)-piperazin-1-yl]-2-nitro-phenol]
Second: Cc1ccc(N2CCN(c3cc(O)c([N+](=O)[O-])cc3F)CC2)cc1 [Compound 6b, 4-Fluoro-2-nitro-5-(4-p-tolyl-piperazin-1-yl)-phenol]
The viability at 24 h, 10 µM of the first is lower: 108% for the first, 120% for the second.

For COc1ccc(N2CCN(c3cc4oc(C)nc4cc3F)CC2)cc1 [Compound 7e, 5-Fluoro-6-[4-(4-methoxy-phenyl)-piperazin-1-yl]-2-methyl-benzooxazole], the viability at 24 h, 10 µM was 91%.

same assay, conditions: human; Liver cells, hepatocytes (HepaRG); 50 µM; 24 h; vs DMSO vehicle

First: O=[N+]([O-])c1cc(F)c(N2CCN(c3cccc(O)c3)CC2)cc1O [Compound 6h, 4-Fluoro-5-[4-(3-hydroxy-phenyl)-piperazin-1-yl]-2-nitro-phenol]
Second: Cc1ccc(N2CCN(c3cc(O)c([N+](=O)[O-])cc3F)CC2)cc1 [Compound 6b, 4-Fluoro-2-nitro-5-(4-p-tolyl-piperazin-1-yl)-phenol]
The viability at 24 h, 50 µM of the first is lower: 83% for the first, 97% for the second.

With COc1ccc(N2CCN(c3cc4oc(C)nc4cc3F)CC2)cc1 [Compound 7e, 5-Fluoro-6-[4-(4-methoxy-phenyl)-piperazin-1-yl]-2-methyl-benzooxazole] the viability at 24 h, 50 µM was 71%.

same assay, conditions: human; Liver cells, hepatocytes (HepaRG); 100 µM; 24 h; vs DMSO vehicle

First: O=[N+]([O-])c1cc(F)c(N2CCN(c3cccc(O)c3)CC2)cc1O [Compound 6h, 4-Fluoro-5-[4-(3-hydroxy-phenyl)-piperazin-1-yl]-2-nitro-phenol]
Second: Cc1ccc(N2CCN(c3cc(O)c([N+](=O)[O-])cc3F)CC2)cc1 [Compound 6b, 4-Fluoro-2-nitro-5-(4-p-tolyl-piperazin-1-yl)-phenol]
The viability at 24 h, 100 µM of the first is lower: 58% for the first, 96% for the second.

tested on: not given; test: not given; conditions: not given

First: O=[N+]([O-])c1cc(F)c(N2CCN(c3cccc(O)c3)CC2)cc1O [Compound 6h, 4-Fluoro-5-[4-(3-hydroxy-phenyl)-piperazin-1-yl]-2-nitro-phenol]
Second: Cc1ccc(N2CCN(c3cc(O)c([N+](=O)[O-])cc3F)CC2)cc1 [Compound 6b, 4-Fluoro-2-nitro-5-(4-p-tolyl-piperazin-1-yl)-phenol]
The melting point of the first is higher: 207 to 208 °C for the first, 178 to 179 °C for the second.

Work on COc1ccc(N2CCN(c3cc4oc(C)nc4cc3F)CC2)cc1 [Compound 7e, 5-Fluoro-6-[4-(4-methoxy-phenyl)-piperazin-1-yl]-2-methyl-benzooxazole] yielded a melting point of 156 to 157 °C.

tested on: A-549 lung carcinoma cells; test: CellTiter-Glo luminescent cell viability (cytotoxicity) assay on lung cancer cells; format: cell-based, human; conditions: Homo sapiens, A549; Lung cancer cells (A-549); 0.1 µM; 24 h; vs DMSO vehicle
Experimental: as §1, §2, §3

Compared with O=[N+]([O-])c1cc(F)c(N2CCN(c3cccc(O)c3)CC2)cc1O [Compound 6h, 4-Fluoro-5-[4-(3-hydroxy-phenyl)-piperazin-1-yl]-2-nitro-phenol], Cc1ccc(N2CCN(c3cc(O)c([N+](=O)[O-])cc3F)CC2)cc1 [Compound 6b, 4-Fluoro-2-nitro-5-(4-p-tolyl-piperazin-1-yl)-phenol] is lower in viability at 0.1 µM: 106% for the first, 99% for the second.

COc1ccc(N2CCN(c3cc4oc(C)nc4cc3F)CC2)cc1 [Compound 7e, 5-Fluoro-6-[4-(4-methoxy-phenyl)-piperazin-1-yl]-2-methyl-benzooxazole] gave a viability at 0.1 µM of 93%.

same assay, conditions: Homo sapiens, A549; Lung cancer cells (A-549); 1 µM; 24 h; vs DMSO vehicle

Going from O=[N+]([O-])c1cc(F)c(N2CCN(c3cccc(O)c3)CC2)cc1O [Compound 6h, 4-Fluoro-5-[4-(3-hydroxy-phenyl)-piperazin-1-yl]-2-nitro-phenol] to Cc1ccc(N2CCN(c3cc(O)c([N+](=O)[O-])cc3F)CC2)cc1 [Compound 6b, 4-Fluoro-2-nitro-5-(4-p-tolyl-piperazin-1-yl)-phenol], the viability at 1 µM falls from 106% to 100%.

In the case of COc1ccc(N2CCN(c3cc4oc(C)nc4cc3F)CC2)cc1 [Compound 7e, 5-Fluoro-6-[4-(4-methoxy-phenyl)-piperazin-1-yl]-2-methyl-benzooxazole], the viability at 1 µM is reported as 92%.

same assay, conditions: Homo sapiens, A549; Lung cancer cells (A-549); 10 µM; 24 h; vs DMSO vehicle

Going from O=[N+]([O-])c1cc(F)c(N2CCN(c3cccc(O)c3)CC2)cc1O [Compound 6h, 4-Fluoro-5-[4-(3-hydroxy-phenyl)-piperazin-1-yl]-2-nitro-phenol] to Cc1ccc(N2CCN(c3cc(O)c([N+](=O)[O-])cc3F)CC2)cc1 [Compound 6b, 4-Fluoro-2-nitro-5-(4-p-tolyl-piperazin-1-yl)-phenol], the viability at 10 µM falls from 105% to 68%.

Compound COc1ccc(N2CCN(c3cc4oc(C)nc4cc3F)CC2)cc1 [Compound 7e, 5-Fluoro-6-[4-(4-methoxy-phenyl)-piperazin-1-yl]-2-methyl-benzooxazole] has a viability at 10 µM of 75%.

same assay, conditions: Homo sapiens, A549; Lung cancer cells (A-549); 50 µM; 24 h; vs DMSO vehicle

Going from O=[N+]([O-])c1cc(F)c(N2CCN(c3cccc(O)c3)CC2)cc1O [Compound 6h, 4-Fluoro-5-[4-(3-hydroxy-phenyl)-piperazin-1-yl]-2-nitro-phenol] to Cc1ccc(N2CCN(c3cc(O)c([N+](=O)[O-])cc3F)CC2)cc1 [Compound 6b, 4-Fluoro-2-nitro-5-(4-p-tolyl-piperazin-1-yl)-phenol], the viability at 50 µM falls from 87% to 65%.

With COc1ccc(N2CCN(c3cc4oc(C)nc4cc3F)CC2)cc1 [Compound 7e, 5-Fluoro-6-[4-(4-methoxy-phenyl)-piperazin-1-yl]-2-methyl-benzooxazole] the viability at 50 µM was 74%.

same assay, conditions: Homo sapiens, A549; Lung cancer cells (A-549); 100 µM; 24 h; vs DMSO vehicle

In the case of COc1ccc(N2CCN(c3cc4oc(C)nc4cc3F)CC2)cc1 [Compound 7e, 5-Fluoro-6-[4-(4-methoxy-phenyl)-piperazin-1-yl]-2-methyl-benzooxazole], the viability at 100 µM is reported as 68%.
